Results: US20250009902A1, “ARTIFICIAL ENZYME-BACTERIA SYSTEM AND USES THEREOF” (NATIONAL UNIVERSITY OF SINGAPORE, priority 2021, published 2025)

Legend:
HT-29 cells [1] = tested on: HT-29 cells
Procedure: (§1) For the protection of cells from H2O2 induced oxidative stress, different concentrations of BL@B-SA50 were cultured with HT-29 cells in the absence or presence of H2O2 (200 μM) for 24 hours. Relative cell viabilities were tested by the 3-(4,5-dimethylthiazol-2-yl)-2,5-diphenyltetrazolium bromide (MTT) assay.
(§2) The concentrations of nanomaterials in different measurements of MTT assays were 0.625 μg/mL while that for confocal microscopy and flow cytometry were both 2.5 μg/mL. The viabilities of HT-29 cells without treatment were defined as 100%, while the ROS content of HT-29 cells without treatment was defined as 1.

HT-29 cells [2] = assay: HT-29 cell viability, MTT assay, with or without H2O2; conditions: 200 μM H2O2, MTT; H2O2 alone approximately 20%; FIG. 4k
Procedure: as §1, §2

Substance: Bifidobacterium longum [BL]
- relative cell viability of HT29 cells (cytotoxicity / growth) (HT-29 cells [1]): could promote the growth of HT29
- viability of HT29 cells exposed to H2O2 (HT-29 cells [2]): also enhanced
